Among the data in a melting point compilation (Tetko et al.; mined from patent text by program, amines drawn as free bases though some values may be those of a salt) are melting point values, retold here.

The structures appear in SMILES notation.

For the molecule `CSc1nn2c(N)cc(CN3CCN(C)CC3)nc2c1S(=O)(=O)c1ccccc1`, the melting point (in general, the temperature of the solid-liquid transition) lay within 203 to 205 °C.

`Cc1ccc(-n2c(=O)[nH]c3ccccc3c2=O)cc1` displayed a melting point of 267 °C.

In turn, `CCNS(=O)(=O)Nc1ccc(C(O)(C(F)(F)F)C(F)(F)F)cc1` showed a melting point of 178 to 179 °C.

Turning to `COc1ccc(-c2nn(Cc3ccc(Cl)cc3)c(=S)cc2-c2ccncc2)cc1`, the melting point was in the range of 144 to 145 °C.

Regarding `COc1ccc(N2CCN(c3c(C)c(C)c4c(c3C)C(O)(c3ccsc3)C(C)(C)O4)CC2)cc1` (centres undefined), the melting point was in the range of 131 to 133 °C.

On to `COc1ccc(CCN2CC(COc3cccc4c(=O)[nH]ccc34)OC2=O)cc1OC` (centres undefined), for which the melting point was in the range of 173 to 175 °C.

`CCCCSc1cc([N+](=O)[O-])cc(C(O)=NC)c1C(=O)O` yielded a melting point of 106 to 108 °C.

On to `O=C(Nc1ccc(Cl)c(C(=O)Nc2ccccc2)c1O)Nc1cccc(Cl)c1Cl`, for which the melting point fell in the range of 244 to 245 °C.

In the case of `CCOC(=O)c1ccccc1NC(=O)c1oc2nn(C(C)C)c(C)c2c1C`, the melting point lay in the range of 155 to 158 °C.

On to `COC(=O)Cn1c(-c2ccccc2Cl)nc2cccnc21`, for which the melting point was in the range of 198 to 200 °C.

The molecule `CC1OC(=O)N(Cc2ccccc2[N+](=O)[O-])C1=O` (centres undefined) registered a melting point of 114 °C.

Turning to `N#Cc1c(N2CCCCC2)cc(-c2cccc3ccccc23)c2c1C(=O)c1ccccc1-2`, the melting point lay in the range of 202 to 204 °C.

Molecule `O=C(Nc1cccnc1NCc1ccc(Cl)cc1)c1ccccc1[N+](=O)[O-]` had a melting point of 145 to 147 °C.

Regarding `CCOC(=O)C(CBr)=C1C(=N)CCCC1=O`, the melting point was in the range of 170 to 175 °C.

Turning to `CCN(CC)C(=O)Nc1ccc(S(=O)(=O)N2C(=O)C(NCCCCCNC(C)=O)(c3ccccc3Cl)c3cc(Cl)ccc32)cc1` (centres undefined), the melting point is 195 to 198 °C.

Take `CS(=O)(=O)N1CCC(C2c3ccccc3C=Cc3ccccc32)CC1`: the melting point fell in the range of 260 to 268 °C.

`O=C(NNS(=O)(=O)c1ccccc1)c1nccc2ccccc12` registered a melting point of 198 to 200 °C.

Consider `CCCC(c1ccc(C(=O)c2ccccc2)cc1OCc1ccc(Br)cc1)n1ccnc1` (centres undefined), for which the melting point lay within 70 to 72 °C.

As for `CN(C)Cc1nc(CSCCNC(=N)N[N+](=O)[O-])cs1`, the melting point is 104 to 106 °C.

As for `NC(=O)CNC(=O)c1cccc(-c2ccc3c(c2)N(c2cccc(Cl)c2Cl)CC3)c1`, the melting point was in the range of 203 to 204 °C.

In turn, `CN(C)c1ccc(-c2nnc(N3CCC(O)CC3)nc2-c2ccc(N(C)C)cc2)cc1` had a melting point of 186 to 188 °C.

The molecule `Oc1nsnc1-c1ccc(Cl)cc1` came in with a melting point of 240 to 242 °C.

Take `Cc1ccc(-c2cccc(/C=C/C(=O)Nc3ccc(CN4CCCCC4)cc3)c2)cc1`: the melting point was in the range of 154 to 156 °C.

For `O=C1CCC(=O)N1c1cccc2ccccc12`, the melting point worked out at 154 °C.

As for `COc1nc2c(cc1NC(=S)N1CCN(c3cc(C)cc(C)c3)CC1)CCCC2`, the melting point lay in the range of 200 to 201 °C.

In the case of `COc1cc(/C=C/C(=O)Oc2ccc(NC(C)=O)cc2)ccc1OC(C)=O`, the melting point lay within 246 to 250 °C.

In the case of `CCc1cccc(NC(=O)C(C)(C)C)n1`, the melting point is 59 to 62 °C.

`Cc1ccccc1-n1ccc2c(=O)[nH]c3c(C)cccc3c21`: the melting point lay within 226 to 232 °C.

With `OCC1OC(n2cnc3c(NCc4cccc(O)c4)ncnc32)C(O)C1O` (centres undefined), the melting point is 196 °C.

Consider `O=C(O)c1cc(NCc2ccc(F)cc2)ccc1O`, for which the melting point is more than 210 °C.

On to `CN1CC(C(=O)c2ccc(Cc3ccc(F)cc3)o2)=C(O)C1=O`, for which the melting point lay within 141 to 143 °C.

As for `CC(C)(C)OC(=O)n1cccc1-c1ccc2c(c1)C(C)(C)OC(=O)N2`, the melting point lay in the range of 172 to 173 °C.

Molecule `Nc1nc(CN2CCCN(C(c3ccccc3)c3ccccc3)CC2)cs1` registered a melting point of 152 to 156 °C.

Molecule `O=C(c1ccccc1)c1cnc2cnccc2c1O` registered a melting point of 228 °C.

For the molecule `CC(C)(C)OC(=O)NC[C@H]1CC[C@H](CCO)CC1`, the melting point fell in the range of 78 to 80 °C.

In turn, `CC(C)(C)c1cc(C(=O)NCCc2ccc(N)cc2)cc(C(C)(C)C)c1O` came in with a melting point of 193 to 195 °C.

`CCCCCCCCC(=O)Nc1cc([N+](=O)[O-])ccc1O` came in with a melting point of 140 to 141 °C.

In turn, `CC(C#N)(COc1ccc(Cl)cc1)NS(=O)(=O)Cc1ccccc1` (centres undefined) had a melting point of 120 to 121 °C.

`COc1ccc(-n2nc3c4c([nH]cc-3c2=O)CCCCCC4)cc1`: the melting point fell in the range of 275 to 277 °C.

Molecule `Cc1ccc(CSc2nc(C)n(C)c(=O)c2Br)cc1` had a melting point of 73 to 74 °C.

On to `Cn1ccc(=O)c(OCc2ccccc2)c1C(O)c1ccccn1` (centres undefined), for which the melting point fell in the range of 202 to 204 °C.

The molecule `C[C@H](O)Cn1c(=O)c(Oc2ccc(F)cc2F)cc2cnc(N[C@@H](C)CO)nc21` returned a melting point of 182 to 184 °C.

In turn, `CCCCCCCCCCCCNC(=O)c1cc(Br)c(OCCn2cnnn2)c(-c2cccc(C(F)(F)F)c2)c1` showed a melting point of 91.5 to 92.6 °C.

Molecule `CCOc1ccc(Nc2n[nH]c(N)c2C#N)cc1` showed a melting point of 166 to 167 °C.

The molecule `CC(C)(C)c1cc(OCCCCC#N)cc(C(C)(C)C)c1` gave a melting point of 61 to 64 °C.

`Cc1c(NC(=O)c2ccc(OC[C@@H]3CCCO3)cc2)ccc2c1cc(CNCC(C)C)n2C` returned a melting point of 162 °C.

The molecule `Nc1cccc(-c2ccnc3c(C(=O)c4cccs4)cnn23)c1` showed a melting point of 183 to 184 °C.

For `CC(=O)NC(C)Cc1ccc(OC(C)=O)cc1` (centres undefined), the melting point lay in the range of 97.5 to 99 °C.

`OCCC#Cc1ccc(-c2ccc(F)cc2)cc1` yielded a melting point of 134 °C.

`CC(C)(NC1=NS(=O)(=O)c2sc(Cl)cc2N1)c1ccccc1`: the melting point was 360 °C.

For the molecule `COc1ccc(-n2nc(Sc3cccc(OC)c3)c(C)c(C#N)c2=O)cc1`, the melting point fell in the range of 143 to 144 °C.

Turning to `CCCCc1nc2c(N)nc3ccccc3c2n1CCCCS(C)(=O)=O`, the melting point was in the range of 164 to 165 °C.

`O=C1C=C/C(=C/c2ccc(F)cc2)O1`: the melting point fell in the range of 140 to 142 °C.

For the molecule `CCS(=O)(=O)C1(C(O)(Cn2cncn2)c2ccc(Cl)cc2)CC1` (centres undefined), the melting point is 215 °C.

The molecule `C#CC1(O)C=CC2C3CCC4=CC(=O)CC(O)C4C3CCC21CC` (centres undefined) registered a melting point of 129 to 130 °C.

`CCC(CC)Nc1cc(C(=O)OC)ccc1N1C(=O)CCC1(CO)CO` showed a melting point of 183 to 185 °C.

`C#CC(C)Oc1cc(-c2nn3c(c2Cl)CCCC3)c(F)cc1Cl` (centres undefined) had a melting point of 116 to 120 °C.

With `CC(C)C1C(=O)C(C)(C)C(=O)N1c1ccc(C#N)c(Cl)c1` (centres undefined), the melting point lay in the range of 116 to 117 °C.

Molecule `O=c1c2cccc3c2n(c(=O)n1CCO)-c1cc(C(F)(F)F)ccc1S3` gave a melting point of 90 to 93 °C.

`COc1ccc(-c2c(Cl)c(CCl)nc3cc(OC)c(OC)cc23)cc1OC` displayed a melting point of 206 to 207 °C.

In turn, `CC1=CC=CC(O)(C(=N)N)C1C` (centres undefined) had a melting point of 110 to 111 °C.

Take `CCC(C(=O)C(C)C(O)C(C)CCc1c(N=Nc2ccccc2)cc(C)c(O)c1C(=O)O)C1OC(CC)(C2CCC(O)(CC)C(C)O2)CC1C` (centres undefined): the melting point is 212 to 215 °C.

For `CC1(C)C(C=C2CCCC2)C1C(=O)OC(C#N)c1ccc(F)c(Oc2ccccc2)c1` (centres undefined), the melting point was 81 °C.

In turn, `COC(=O)c1ccc(OC)nc1S(=O)(=O)NC(=O)Nc1nc(OC)cc(OC)n1` came in with a melting point of 194 to 196 °C.
